Results from patent US6358522B1, “Pharmaceutical compositions containing lipase inhibitor” (Hoffmann-La Roche Inc., priority 1998, dated 2002).

Test: Anal leakage of oil in rats on high fat diet with diet-admixed orlistat
Format: in vivo
From the text: Rats maintained on high fat diet were used as models. […] However, the amount of oil leakage could not easily be determined. Due to coprophagia and extensive grooming activity the rats distributed the oil to a large extent over their fur. Moreover, this stressful condition of unsuccessful grooming provoked considerable excitation of the animals. The area of greasy fur increased in proportion to the amount of unabsorbed fat and was reduced by dietary admixture of selected examples of the above defined food additives. However, for reasons of animal care for comparative evaluation of the additives a surrogate parameter was used to assess effects on oil leakage. Following a meal containing orlistat, unabsorbed fat is temporarily stored in the caecum of the rat prior to excretion. The fat is partly present as floating liquid oil, partly associated with unabsorbable solids.

## CCCCCCCCCCC[C@@H](C[C@@H]1OC(=O)[C@H]1CCCCCC)OC(=O)[C@H](CC(C)C)NC=O [orlistat, N-formyl-L-leucine ester with (3S,4S)-3-hexyl-4-[(2S)-2-hydroxy-tridecyl]-2-oxetanone]
  Anal leakage of oil: provoked anal leakage of liquid oil
